# Assay results as given in patent US11851406B2, “Positive allosteric modulators of the muscarinic acetylcholine receptor M1” (Vanderbilt University, priority 2018, dated 2023).
# Legend:
# human mAChR M1 [1] = target: T1, human mAChR M1 (Homo sapiens, UniProt P11229); test: mAChR M1 cell-based functional assay (calcium mobilization), PAM activity: increase in the EC20 acetylcholine response; details: CHO-K1 cells expressing hM1; calcium flux (Fluo-4); potentiation of EC20 acetylcholine response
# T1 sequence (P11229 1-460): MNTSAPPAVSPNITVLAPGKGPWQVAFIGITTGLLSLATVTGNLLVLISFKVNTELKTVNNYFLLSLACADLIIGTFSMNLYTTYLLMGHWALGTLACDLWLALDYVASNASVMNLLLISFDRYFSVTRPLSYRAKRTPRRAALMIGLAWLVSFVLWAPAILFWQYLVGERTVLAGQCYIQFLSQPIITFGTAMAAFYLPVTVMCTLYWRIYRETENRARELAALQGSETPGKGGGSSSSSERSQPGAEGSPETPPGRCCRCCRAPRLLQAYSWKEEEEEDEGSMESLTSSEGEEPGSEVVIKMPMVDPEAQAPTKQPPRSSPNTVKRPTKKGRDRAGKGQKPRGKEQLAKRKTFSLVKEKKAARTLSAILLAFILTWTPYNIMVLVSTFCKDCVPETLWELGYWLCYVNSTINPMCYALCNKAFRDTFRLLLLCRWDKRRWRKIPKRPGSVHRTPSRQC
# Source text: (§1) Chinese hamster ovary (CHO-K1) cells stably expressing rat (r)M1 were purchased from the American Type Culture Collection and cultured according to their indicated protocol. CHO cells stably expressing human (h)M2, hM3, and hM5 were described previously (Levey, et al., 1991); hM1 and hM4 cDNAs were purchased from Missouri S&T cDNA Resource; rM4 cDNA was provided by T. I. Bonner (National Institutes of Health, Bethesda, Md.). rM2 and rM3 were cloned from a rat brain cDNA library and sequence verified. hM1, rM2, rM3, hM4, and rM4 cDNAs were used to stably transfect CHO-K1 cells purchased from the American Type Culture Collection using Lipofectamine2000. To make stable rM2, hM2, rM3, hM4, and rM4 cell lines for use in calcium mobilization assays, these cells also were stably transfected with a chimeric G-protein (Gqi5) (provided by B. R. Conklin, University of California, San Francisco) using Lipofectamine 2000. rM1, hM1, rM3, hM3, rM5, and hM5 cells were grown in Ham's F-12 medium containing 10% heat-inactivated fetal bovine serum (FBS), 20 mM HEPES, and 50 μg/mL G418 sulfate. rM2-Gqi5, hM2-Gqi5, and hM4-Gqi5 cells were grown in the same medium also containing 500 μg/mL Hygromycin B. Stable rM4-Gqi5 cells were grown in DMEM containing 10% heat-inactivated FBS, 20 mM HEPES, 400 μg/mL G418 sulfate, and 500 μg/mL Hygromycin B.
# (§2) For high throughput measurement of agonist-evoked increases in intracellular calcium, CHO-K1 cells stably expressing muscarinic receptors were plated in growth medium lacking G418 and hygromycin at 15,000 cells/20 μL/well in Greiner 384-well black-walled, tissue culture (TC)-treated, clear-bottom plates (VWR). Cells were incubated overnight at 37° C. and 5% CO2. The next day, cells were washed using an ELX 405 (BioTek) with four washes (80 μL) of assay buffer then aspirated to 20 μL. Next, 20 μL of 16 μM Fluo-4/acetoxymethyl ester (Invitrogen, Carlsbad, Calif.) prepared as a 2.3 mM stock in DMSO and mixed in a 1:1 ratio with 10% (w/v) Pluronic F-127 and diluted in assay buffer was added to the wells and the cell plates were incubated for 50 min at 37° C. and 5% CO2. Dye was removed by washing with the ELX 405 (four 80 μL washes of assay buffer) then aspirated to 20 μL. Compound master plates were formatted in an 11 point CRC format (1:3 dilutions) in 100% DMSO with a starting concentration of 10 mM using the BRAVO liquid handler (Agilent). Test compound CRCs were then transferred to daughter plates (240 nL) using the Echo acoustic plate reformatter (Labcyte, Sunnyvale, Calif.) and then diluted into assay buffer (40 μL) to a 2× stock using a Thermo Fisher Combi (Thermo Fisher Scientific, Waltham, Mass.).
# (§3) Calcium flux was measured using the Functional Drug Screening System (FDSS) 6000 (Hamamatsu Corporation, Tokyo, Japan) as an increase in the fluorescent static ratio. Compounds were applied to cells (20 μL, 2×) using the automated system of the FDSS 6000 at 4 s into the 300 s protocol and the data were collected at 1 Hz. At 144 s into the 300 s protocol, 10 μL of an EC20 concentration of the muscarinic receptor agonist acetylcholine was added (5×), followed by the addition of 12 μL an EC80 concentration of acetylcholine at the 230 s time point (5×). Agonist activity was analyzed as a concentration-dependent increase in calcium mobilization upon compound addition. Emax values for agonist activity are expressed relative to the maximum for acetylcholine. Positive allosteric modulator activity was analyzed as a concentration-dependent increase in the EC20 acetylcholine response. Antagonist activity was analyzed as a concentration-dependent decrease in the EC80 acetylcholine response. Concentration-response curves were generated using a four-parameter logistical equation in XLfit curve fitting software (IDBS, Bridgewater, N.J.) for Excel (Microsoft, Redmond, Wash.) or Prism (GraphPad Software, Inc., San Diego, Calif.).
# human mAChR M1 [2] = target: T1, human mAChR M1; test: mAChR M1 cell-based functional assay (calcium mobilization), agonist activity upon compound addition alone; details: CHO-K1 cells expressing hM1; for EC50: calcium mobilization upon compound addition, no acetylcholine; for Emax: compound alone, relative to the maximum for acetylcholine
# Source text: as §1, §2, §3
EC50 (human mAChR M1 [1]) [µM],Emax (human mAChR M1 [1]) [%],EC50 (human mAChR M1 [2]) [µM],Emax (human mAChR M1 [2]) [%],Compound
2.02,63,> 10,< 5,"Cn1ccc(-c2ccc(Cc3cc(C(=O)N[C@H]4CCCC[C@@H]4O)nc(-c4ccn(C)n4)c3)cc2)n1 [Compound 34, N-((1S,2S)-2-hydroxycyclohexyl)-6-(1-methyl-1H-pyrazol-3-yl)-4-(4-(1-methyl-1H-pyrazol-3-yl)benzyl)picolinamide]"
,46,> 10,< 5,"Cn1ccc(-c2ccc(Cc3cc(C(=O)NC4CCOCC4)nc(-c4ccn(C)n4)c3)cc2)n1 [Compound 35, 6-(1-methyl-1H-pyrazol-3-yl)-4-(4-(1-methyl-1H-pyrazol-3-yl)benzyl)-N-(tetrahydro-2H-pyran-4-yl)picolinamide]"
3.71,38,> 10,< 5,"Cn1ccc(-c2ccc(Cc3cc(C(=O)NC4CC5(COC5)C4)nc(-c4ccn(C)n4)c3)cc2)n1 [Compound 36, 6-(1-methyl-1H-pyrazol-3-yl)-4-(4-(1-methyl-1H-pyrazol-3-yl)benzyl)-N-(2-oxaspiro[3.3]heptan-6-yl)picolinamide]"
1.56,76,> 10,< 5,"Cn1ccc(-c2ccc(Cc3cc(C(=O)N[C@H]4CCOC[C@@H]4O)nc(-c4ccn(C)n4)c3)cc2)n1 [Compound 37, N-((3R,4S)-3-hydroxytetrahydro-2H-pyran-4-yl)-6-(1-methyl-1H-pyrazol-3-yl)-4-(4-(1-methyl-1H-pyrazol-3-yl)benzyl)picolinamide]"
2.72,39,> 10,< 5,"Cn1ccc(-c2ccc(Cc3cc(C(=O)N[C@H]4CCC[C@@H]4O)nc(-c4ccn(C)n4)c3)cc2)n1 [Compound 38, N-((1S,2S)-2-hydroxycyclopentyl)-6-(1-methyl-1H-pyrazol-3-yl)-4-(4-(1-methyl-1H-pyrazol-3-yl)benzyl)picolinamide]"
2.85,57,> 10,< 5,"Cn1cc(-c2cc(Cc3ccc(-c4ccn(C)n4)cc3)cc(C(=O)N[C@H]3CCOC[C@@H]3O)n2)cn1 [Compound 39, N-((3R,4S)-3-hydroxytetrahydro-2H-pyran-4-yl)-4-(4-(1-methyl-1H-pyrazol-3-yl)benzyl)-6-(1-methyl-1H-pyrazol-4-yl)picolinamide]"
9.44,57,> 10,< 5,"Cn1cc(-c2cc(Cc3ccc(-c4ccn(C)n4)cc3)cc(C(=O)N[C@H]3CCCC[C@@H]3O)n2)cn1 [Compound 40, N-((1S,2S)-2-hydroxycyclohexyl)-4-(4-(1-methyl-1H-pyrazol-3-yl)benzyl)-6-(1-methyl-1H-pyrazol-4-yl)picolinamide]"
0.307,79,7.78,26,"Cc1c(Cc2ccc(-c3ccn(C)n3)cc2)cc(C(=O)N[C@H]2CCCC[C@@H]2O)nc1-n1cccn1 [Compound 41, N-((1S,2S)-2-hydroxycyclohexyl)-5-methyl-4-(4-(1-methyl-1H-pyrazol-3-yl)benzyl)-6-(1H-pyrazol-1-yl)picolinamide]"
,83,> 10,< 5,"Cc1c(Cc2ccc(-c3ccn(C)n3)cc2)cc(C(=O)NC2CCOCC2)nc1-n1cccn1 [Compound 42, 5-methyl-4-(4-(1-methyl-1H-pyrazol-3-yl)benzyl)-6-(1H-pyrazol-1-yl)-N-(tetrahydro-2H-pyran-4-yl)picolinamide]"
1.3,85,≥ 10,14,"Cc1c(Cc2ccc(-c3ccn(C)n3)cc2)cc(C(=O)N[C@H]2CCC[C@@H]2O)nc1-n1cccn1 [Compound 43, N-((1S,2S)-2-hydroxycyclopentyl)-5-methyl-4-(4-(1-methyl-1H-pyrazol-3-yl)benzyl)-6-(1H-pyrazol-1-yl)picolinamide]"
1.09,83,≥ 10,23,"Cc1c(Cc2ccc(-c3ccn(C)n3)nc2)cc(C(=O)N[C@H]2CCOC[C@@H]2O)nc1-n1cccn1 [Compound 44, N-((3R,4S)-3-hydroxytetrahydro-2H-pyran-4-yl)-5-methyl-4-((6-(1-methyl-1H-pyrazol-3-yl)pyridin-3-yl)methyl)-6-(1H-pyrazol-1-yl)picolinamide]"
0.863,47,> 10,8,"Cc1nc(-c2ccc(Cc3cc(C(=O)N[C@H]4CCOC[C@@H]4O)nc(-n4cccn4)c3C)cc2)co1 [Compound 45, N-((3R,4S)-3-hydroxytetrahydro-2H-pyran-4-yl)-5-methyl-4-(4-(2-methyloxazol-4-yl)benzyl)-6-(1H-pyrazol-1-yl)picolinamide]"
0.881,85,≥ 10,28,"Cc1c(Cc2ccc(-c3ccn(C)n3)nc2)cc(C(=O)N[C@H]2CCCC[C@@H]2O)nc1-n1cccn1 [Compound 46, N-((1S,2S)-2-hydroxycyclohexyl)-5-methyl-4-((6-(1-methyl-1H-pyrazol-3-yl)pyridin-3-yl)methyl)-6-(1H-pyrazol-1-yl)picolinamide]"
0.675,85,9.08,29,"Cc1c(Cc2ccc(-c3cnn(C)c3)nc2)cc(C(=O)N[C@H]2CCCC[C@@H]2O)nc1-n1cccn1 [Compound 47, N-((1S,2S)-2-hydroxycyclohexyl)-5-methyl-4-((6-(1-methyl-1H-pyrazol-4-yl)pyridin-3-yl)methyl)-6-(1H-pyrazol-1-yl)picolinamide]"
0.832,59,8.59,10,"Cc1nc(-c2ccc(Cc3cc(C(=O)N[C@H]4CCCC[C@@H]4O)nc(-n4cccn4)c3C)cc2)co1 [Compound 48, N-((1S,2S)-2-hydroxycyclohexyl)-5-methyl-4-(4-(2-methyloxazol-4-yl)benzyl)-6-(1H-pyrazol-1-yl)picolinamide]"
,63,> 10,< 5,"Cc1c(Cc2ccc(-c3ccn(C)n3)nc2)cc(C(=O)NC2CCOCC2)nc1-n1cccn1 [Compound 49, 5-methyl-4-((6-(1-methyl-1H-pyrazol-3-yl)pyridin-3-yl)methyl)-6-(1H-pyrazol-1-yl)-N-(tetrahydro-2H-pyran-4-yl)picolinamide]"
